Assay results: patent US10906876B2, “Tetrahydroisoquinolines as selective NADPH oxidase 2 inhibitors” (University of Pittsburgh—Of the Commonwealth System of …, priority 2013, dated 2021)

Legend:
Format in all cases: cell-based
[1] = system: human pulmonary artery endothelial cells (HPAEC); assay: ROS production of HPAEC treated with angiotensin II; details: angiotensin II 24 hrs, 25 μM compound, preliminary data
Protocol: Cos-Nox2, Cos-Nox1, human fibroblasts were cultured in DMEM, 10% FBS-supplemented media, human pulmonary artery endothelial cells were cultured in EBM2media containing growth factors (Lonza) and rat neonatal cardiomyocytes were cultured in DMEM/F12 (50/50) media supplemented with 5% horse serum, 100 μM BrdU and Insulin-Transferrin-Selenium (ITS, Gibco).

[2] = target: T1, Nox2 (Homo sapiens, UniProt P04839); assay: ROS production of transiently Nox2-transfected Cos cells treated with PMA; details: 10 μM compound
T1 construct: expressed in transfected cells
T1 sequence (P04839 2-570 limits assumed): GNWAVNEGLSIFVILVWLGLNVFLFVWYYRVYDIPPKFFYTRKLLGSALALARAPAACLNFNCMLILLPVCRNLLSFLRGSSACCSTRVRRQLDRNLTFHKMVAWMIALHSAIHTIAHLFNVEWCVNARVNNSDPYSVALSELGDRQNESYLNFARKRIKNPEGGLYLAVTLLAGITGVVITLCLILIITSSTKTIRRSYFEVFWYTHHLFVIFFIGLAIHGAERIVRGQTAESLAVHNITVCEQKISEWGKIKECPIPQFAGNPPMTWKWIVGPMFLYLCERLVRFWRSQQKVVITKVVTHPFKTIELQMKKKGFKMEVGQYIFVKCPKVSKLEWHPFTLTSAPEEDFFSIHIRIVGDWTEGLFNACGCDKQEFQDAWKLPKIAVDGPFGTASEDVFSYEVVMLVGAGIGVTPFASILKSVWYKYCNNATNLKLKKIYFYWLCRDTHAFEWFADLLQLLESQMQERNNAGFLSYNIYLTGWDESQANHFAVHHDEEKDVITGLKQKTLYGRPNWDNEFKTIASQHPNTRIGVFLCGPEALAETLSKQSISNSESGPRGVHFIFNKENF
Protocol: (§1) Cell transfection was carried out using Lipofectamine LTX and Plus reagent (Invitrogen, Carlsbad, Calif., USA), according to the manufacturer's instructions. COS-22 cells were transiently co-transfected with pcDNA 3.1-hNox1, pCMVsport 6-hNOXA1 and pcDNA3.1-hNoxO1 (COS-Nox1/NOXO1/NOXA1 cells) or with pcDNA3.1/Hygro-hNox4 (COS-Nox4 cells). Cells were used 24 hr after transfection. Adherent cells were harvested by incubating with 0.05% trypsin/EDTA for 5 min at 37° C. Following addition of DMEM/10% FBS to neutralize the trypsin, the cells were pelleted by centrifugation at 1100×g for 5 min at 4° C. and used for the experiments.
(§2) Since p47^phox activation is important not only for Nox2 activity but also for Nox1 hybrid system present mainly in human endothelial cells, the effect of compounds 11g and 11h on ROS production of transiently Nox2-transfected (FIG. 13) or Nox1 hybrid system-transfected Cos cells (FIG. 14) treated with phorbol ester (PMA) was evaluated.

[3] = target: T2, Nox1 hybrid system (Homo sapiens, UniProt Q9Y5S8); assay: ROS production of transiently Nox1 hybrid system-transfected Cos cells treated with PMA; details: 10 μM compound
T2 construct: Plasmids encoding full-length human cDNAs for Nox1 (pcDNA3.1-hNox1); expressed in transfected cells; host or cells: Cos cells, transient transfection
T2 sequence (Q9Y5S8 1-564): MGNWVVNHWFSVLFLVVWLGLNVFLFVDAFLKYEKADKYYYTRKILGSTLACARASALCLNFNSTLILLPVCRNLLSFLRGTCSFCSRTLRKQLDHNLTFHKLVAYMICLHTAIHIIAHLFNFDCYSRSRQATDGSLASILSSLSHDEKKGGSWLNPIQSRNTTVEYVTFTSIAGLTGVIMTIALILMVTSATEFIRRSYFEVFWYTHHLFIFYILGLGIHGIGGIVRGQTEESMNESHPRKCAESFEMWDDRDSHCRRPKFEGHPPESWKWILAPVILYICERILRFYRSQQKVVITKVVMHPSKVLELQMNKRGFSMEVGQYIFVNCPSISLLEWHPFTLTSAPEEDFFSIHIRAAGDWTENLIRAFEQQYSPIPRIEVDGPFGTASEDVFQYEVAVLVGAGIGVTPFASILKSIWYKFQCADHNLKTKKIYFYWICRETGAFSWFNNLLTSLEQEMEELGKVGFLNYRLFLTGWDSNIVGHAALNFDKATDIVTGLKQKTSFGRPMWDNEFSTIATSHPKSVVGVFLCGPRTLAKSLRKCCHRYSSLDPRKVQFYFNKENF
Protocol: as §1, §2

SMILES | AngII-stimulated ROS production [1] | PMA-stimulated ROS production, Nox2-transfected Cos cells [2] | PMA-stimulated ROS production, Nox1 hybrid system-transfected Cos cells [3]
C=C(C)CC1C2c3c(Br)cccc3C(CC2(C)C)N1CCCCC (racemic) [Compound 11g, (±)-(1S,4R,9S)-5-Bromo-3,3-dimethyl-9-(2-methylallyl-10-pentyl-1,2,3,4-tetrahydro-1,4-(epiminomethano)naphthalene] | differential effect | inhibited | inhibited
C=C(C)CC1C2c3c(Br)cccc3C(CC2(C)C)N1Cc1cccs1 (racemic) [Compound 11h, (±)-(1S,4R,9S)-5-Bromo-3,3-dimethyl-9-(2-methylallyl)-10-(thiophen-2-ylmethyl)-1,2,3,4-tetrahydro-1,4-(epiminomethano)naphthalene] | differential effect | – | did not significantly inhibit
